Experimental data published in US4616025A, “Thiazolidine derivatives, process for the preparation and pharmaceutical compositions thereof” (Richter Gedeon Vegyeszeti Gyar RT, priority 1983, dated 1986).

Columns and labels:
[1] = tested on: indomethacin-induced intestinal ulceration; experiment: Indomethacin-induced fatal intestinal ulceration (15 mg/kg p.o.), inflation technique; format: in vivo, rat (female H-Wistar); conditions: indomethacin 15 + 150 mg/kg p.o.
Procedure: Indomethacin-induced intestinal ulceration
Of the non-steroidal antiinflammatory agents indomethacin has not only a gastric-ulcer inducing side-effect but may also cause serious intestinal ulceration. Depending on the dose, the intestinal ulceration may be fatal, peritonitis due to intestinal perforations kills the animals.
(a) Indomethacin-induced fatal intestinal ulceration
Non-fasted, female H-Winstar rats, weighing 120-150 g each were treated orally with a 15 mg/kg dose of indomethacin (in Tween 80 suspension). […] Under these conditions it requires about 48 to 72 hours to detect intenstinal ulceration.
(§1) To evaluate the development of intestinal ulcers the so-called inflation technique by Ezer and Szporny (J. Pharm. Pharmacol. 27, 866 (1975)) was employed. By this method the progress of ulceration can be monitored quantitatively. The tensile strength of the intestinal wall expressed in mmHg weakens gradually parallel with the progress of ulceration.

[2] = tested on: indomethacin-induced non-fatal intestinal ulceration; experiment: Indomethacin-induced (7.5 mg/kg p.o.) non-fatal intestinal ulceration, post-treatment, inflation technique; format: in vivo, rat (H-Wistar)
Procedure: as §1
(b) Indomethacin-induced non-fatal ulceration
Non-fasted H-Wistar rats weighing 120 to 150 g each were administered 7.5 mg/kg indomethacin orally, to induce non-fatal intestinal ulceration. 4, 24 and 48 hours, respectively, after the indomethacin treatment the animals were treated with the test material orally. The animals were killed 24 hours after the last treatment and 72 hours after the ulcer-induction performed with indomethacin, respectively. Ulceration was evaluated by the inflation technique.

[3] = tested on: gastric necrosis induced by absolute alcohol; experiment: Gastric necrosis induced by absolute alcohol (cytoprotection); format: in vivo, rat (female H-Wistar)
Procedure: Gastric necrosis induced by absolute alcohol
Water was allowed ad libitum. The compounds to be tested were administered orally, 30 minutes prior to the administration of 0.5 ml of ethanol/100 g of body weight through a canula. Two hours later the animals were killed by overdosing ether. Stomachs were removed and opened along the major curvature. […] Degree of the cytoprotection was expressed in % related to the control.

[4] = tested on: intestinal ulceration induced by indomethacin; conditions: literature; cited from earlier work
ulceration = conditions: rheumatic patients simultaneously suffering from ulceration; cited from earlier work

## CN/C(=N/CCSCc1nc[nH]c1C)NC#N [Cimetidine, N-cyano-N'-methyl-N"-2-[(5-methyl-imidazole-4-yl)-methylthio]-ethyl-guanidine, reference compound]
[1]
  Intestinal wall resistency in % of normal: 21 % of normal
  T.s. of intestinal wall 72 hours after treatment: 47 ± 25 mm Hg
[2]; 7.5 + 3 × 50 mg/kg p.o., 4, 24, 48 hours after indomethacin
  T.s. of intestinal wall 72 hours after indomethacin treatment: 184 ± 7 mm Hg
[2]; 7.5 + 3 × 100 mg/kg p.o., 4, 24, 48 hours after indomethacin
  T.s. of intestinal wall 72 hours after indomethacin treatment: 197 ± 10 mm Hg
[2]; post-treatment 4, 24 and 48 hours after indomethacin 7.5 mg/kg p.o.
  Non-fatal intestinal ulceration post-treatment, in words: ineffective
[3]; 6.0 mg/kg p.o.
  Cytoprotection: 44%
  Length of average lesion: 46.0 ± 10 mm/stomach
[3]; 12.0 mg/kg p.o.
  Cytoprotection: 24%
  Length of average lesion: 63.0 ± 18 mm/stomach
[3]; 25.0 mg/kg p.o.
  Cytoprotection: 33%
  Length of average lesion: 55.0 ± 12 mm/stomach
[3]; 50.0 mg/kg p.o.
  Cytoprotection: 59%
  Length of average lesion: 34.0 ± 10 mm/stomach
[3]; 100.0 mg/kg p.o.
  Cytoprotection: 43%
  Length of average lesion: 47.0 ± 16 mm/stomach
[4]
  Indomethacin-induced intestinal ulceration, in words: cannot inhibit intestinal ulceration induced by indomethacin
ulceration
  Outcome of simultaneous administration of cimetidine and indomethacin: perforation in rheumatic patients
